From publication PMC4701715 (Current Therapeutic Research, Clinical and Experimental, 2015)

Experiments:
Format in all cases: cell-based
[1] = target: T1, rat GLP-1r (Rattus norvegicus, UniProt P32301); experiment: cAMP accumulation in Chinese hamster lung cells overexpressing the rat GLP-1r; conditions: Chinese hamster lung cells overexpressing rGLP-1r; 30 min incubation, room temperature, 1 mM IBMX; cAMP ELISA; mean, n = 3
T1 construct: expressed in transfected cells; host or cells: Chinese hamster lung cells
T1 sequence (P32301 22-463): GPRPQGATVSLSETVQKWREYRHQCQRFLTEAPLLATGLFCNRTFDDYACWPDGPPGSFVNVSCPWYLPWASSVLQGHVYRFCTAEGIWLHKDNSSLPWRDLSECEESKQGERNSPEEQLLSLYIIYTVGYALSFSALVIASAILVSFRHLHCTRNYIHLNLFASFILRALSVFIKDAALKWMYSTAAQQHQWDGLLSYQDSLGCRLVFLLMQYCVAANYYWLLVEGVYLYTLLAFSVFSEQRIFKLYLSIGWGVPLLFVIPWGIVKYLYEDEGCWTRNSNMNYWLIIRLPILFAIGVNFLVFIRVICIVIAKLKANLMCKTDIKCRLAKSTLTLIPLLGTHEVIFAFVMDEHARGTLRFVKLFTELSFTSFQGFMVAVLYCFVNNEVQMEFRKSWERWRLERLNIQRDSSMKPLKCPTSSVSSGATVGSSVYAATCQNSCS
Method: (§1) All cell culture reagents were obtained from Invitrogen (Life Technologies Ltd, Paisley, United Kingdom) unless otherwise stated. Chinese hamster ovary-K1 cells overexpressing the rat GCGr were routinely maintained in Dulbecco’s modified eagle medium (DMEM) with 25 mM glucose and 1 mM sodium pyruvate supplemented with 10% fetal bovine serum, 25 mM hydroxyethyl piperazineethanesulfonic acid, 1% antibiotic (100 U/mL penicillin and 100 µg/mL streptomycin), and 1 × nonessential amino acids. Chinese hamster lung cells overexpressing the rat GLP-1r were maintained in the same DMEM but without additional hydroxyethyl piperazineethanesulfonic acid or nonessential amino acids.
(§2) Levels of cAMP accumulation was measured in Chinese hamster ovary-K1 cells overexpressing the rat GCGr (cDNA from Origene, Cambridge Bioscience, Cambridge, United Kingdom) or Chinese hamster lung cells overexpressing the rat GLP-1r (a gift from Bernard Thorens, University of Lausanne, Switzerland). […]
(§3) Data were plotted and in vivo efficacy values calculated.
(§4) cAMP in vitro efficacy and binding in vitro affinity were calculated using nonlinear regression with Prism version 5 software (GraphPad Software Inc, San Diego, California). Differences in cumulative food intake and body weight were analyzed using 1-way ANOVA and post hoc tests with Dunnett or Bonferroni correction (Prism version 5 software). […]

[2] = target: T2, rat GCGr (Rattus norvegicus, UniProt P30082); experiment: Rat GCGr antagonism study: cAMP in the presence of 0.1 nM glucagon; conditions: n = 3
T2 construct: host or cells: Chinese hamster ovary-K1 cells
T2 sequence (P30082 27-485): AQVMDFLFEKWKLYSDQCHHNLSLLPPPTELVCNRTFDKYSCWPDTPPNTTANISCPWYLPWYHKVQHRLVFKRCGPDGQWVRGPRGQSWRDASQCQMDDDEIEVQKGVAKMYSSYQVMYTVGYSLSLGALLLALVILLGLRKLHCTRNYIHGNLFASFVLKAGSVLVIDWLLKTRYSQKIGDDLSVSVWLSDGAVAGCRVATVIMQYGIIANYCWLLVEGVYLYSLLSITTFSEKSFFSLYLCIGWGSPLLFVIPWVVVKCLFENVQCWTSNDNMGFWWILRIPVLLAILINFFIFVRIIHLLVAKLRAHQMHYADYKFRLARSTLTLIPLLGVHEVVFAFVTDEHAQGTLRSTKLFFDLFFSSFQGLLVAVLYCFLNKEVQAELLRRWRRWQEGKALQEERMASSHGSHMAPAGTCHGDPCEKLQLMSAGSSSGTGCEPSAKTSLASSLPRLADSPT
Method: Postincubation, medium was removed and cells lysed with 120 µL/well of 0.1 M hydrochloride + 0.5% nonionic, octylphenol ethoxylate surfactant. cAMP levels were measured using an indirect ELISA according to the manufacturer’s instructions (ADI-900-066, Enzo Life Sciences, United Kingdom), optical density was read at 405 nm on a Biotek ELx808 (Wolf Laboratories, York, United Kingdom). Data were plotted and […] efficacy values calculated.

[3] = target: T2, rat GCGr; experiment: cAMP accumulation in CHO-K1 cells overexpressing the rat GCGr; conditions: CHO cells overexpressing rGCGr; 30 min incubation, room temperature, 1 mM IBMX; cAMP ELISA; mean, n = 3
Method: as §1, §2, §3, §4

EC50 [1]: 8.1 nM | increase of cAMP levels compared with glucagon stimulation alone ([2]; 30 nM peptide with 0.1 nM glucagon): 9% | decrease of glucagon-mediated cAMP accumulation, mean ([2]; all concentrations tested except 30 nM, with 0.1 nM glucagon, relative to glucagon alone): 40.3% | EC50 [3]: 160 nM
SMILES: CC[C@H](C)[C@H](NC(=O)[C@H](CC(N)=O)NC(=O)[C@H](CC(N)=O)NC(=O)[C@H](CCCNC(=N)N)NC(=O)[C@H](CC(N)=O)NC(=O)[C@H](CCCNC(=N)N)NC(=O)[C@H](CCCCN)NC(=O)[C@@H](NC(=O)[C@H](CC(N)=O)NC(=O)[C@H](CCSC)NC(=O)[C@H](CC(C)C)NC(=O)[C@H](Cc1c[nH]c2ccccc12)NC(=O)[C@H](CCC(N)=O)NC(=O)[C@@H](NC(=O)[C@H](Cc1ccccc1)NC(=O)[C@H](CC(=O)O)NC(=O)[C@H](CCC(N)=O)NC(=O)[C@H](C)NC(=O)[C@H](CCCNC(=N)N)NC(=O)[C@H](CCCNC(=N)N)NC(=O)[C@H](CO)NC(=O)[C@H](CC(=O)O)NC(=O)[C@H](CC(C)C)NC(=O)[C@H](Cc1ccc(O)cc1)NC(=O)[C@H](CCCCN)NC(=O)[C@H](CO)NC(=O)[C@H](Cc1ccc(O)cc1)NC(=O)[C@H](CC(=O)O)NC(=O)[C@H](CO)NC(=O)[C@@H](NC(=O)[C@H](Cc1ccccc1)NC(=O)[C@@H](NC(=O)CNC(=O)[C@H](CCC(=O)O)NC(=O)[C@H](CO)NC(=O)[C@@H](N)Cc1c[nH]cn1)[C@@H](C)O)[C@@H](C)O)C(C)C)[C@@H](C)O)C(=O)N[C@@H](C)C(=O)O [OXME3]
